Experiments:
morningglory = assay: Test C preemergence; assay type: in vivo, Ipomoea coccinea; settings: for Morningglory plant response rating: preemergence
Excerpt: (§1) Seeds of plant species selected from blackgrass (Alopecurus myosuroides), Italian ryegrass (Lolium multiflorum), wheat, winter (winter wheat, Triticum aestivum), galium (catchweed bedstraw, Galium aparine), corn (Zea mays), large (Lg) crabgrass (Digitaria sanguinalis), giant foxtail (Setaria faberii), johnsongrass (Sorghum halepense), lambsquarters (Chenopodium album), morningglory (Ipomoea coccinea), yellow nutsedge (Cyperus esculentus), pigweed (Amaranthus retroflexus), ragweed (common ragweed, Ambrosia elatior), soybean (Glycine max), barnyardgrass (Echinochloa crus-galli), oilseed rape (Brassica napus), waterhemp (common waterhemp, Amaranthus rudis), kochia (Kochia scoparia), wild oat (Avena fatua), surinam grass (Brachiaria decumbens), foxtail, green (green foxtail, Setaria viridis), goosegrass (Eleusine indica), bromegrass, downy (downy bromegrass, Bromus tectorum), nightshade (eastern black nightshade, Solanum ptycanthum), cocklebur (common cocklebur, Xanthium strumarium), cupgrass, woolly (woolly cupgrass, Eriochloa villosa), bermudagrass (Cynodon dactylon), sunflower, (common oilseed sunflower, Helianthus annuus), Russian thistle (Salsola kali), and velvetleaf (Abutilon theophrasti) were planted into a blend of loam soil and sand and treated preemergence with test chemicals formulated in a non-phytotoxic solvent mixture which included a surfactant.
(§2) At the same time, plants selected from these crop and weed species and also barley, winter (winter barley, Hordeum vulgare), windgrass (Apera spica-venti), chickweed (common chickweed, Stellaria media), deadnettle (henbit deadnettle, Lamium amplexicaule), and canarygrass (littleseed canarygrass, Phalaris minor) were planted in pots containing Redi-Earth® planting medium (Scotts Company, 14111 Scottslawn Road, Marysville, Ohio 43041) comprising spaghnum peat moss, vermiculite, wetting agent and starter nutrients and treated with postemergence applications of test chemicals formulated in the same manner. Plants ranged in height from 2 to 18 cm (1- to 4-leaf stage) for postemergence treatments. Treated plants and controls were maintained in a greenhouse for 13 to 15 days, after which time all species were compared to controls and visually evaluated. Plant response ratings, summarized in Table C, are based on a scale of 0 to 100 where 0 is no effect and 100 is complete control. A dash (-) response means no test result.

corn = assay: Test C preemergence; assay type: in vivo, Zea mays; settings: for Corn plant response rating: preemergence; for Plant response rating, Corn: Preemergence, scale 0 to 100, 0 no effect, 100 complete control
Excerpt: as §1, §2

yellow nutsedge = assay: Test C preemergence; assay type: in vivo, Cyperus esculentus; settings: for Nutsedge, Yellow plant response rating: preemergence
Excerpt: as §1, §2

barnyardgrass = assay: Test B flooded paddy test; assay type: in vivo, Echinochloa crus-galli; settings: Flood, 250 g ai/ha; 0 to 100 scale where 0 is no effect and 100 is complete control
Method in brief: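 Post-emergence paddy-water application at the 2-leaf stage, with 3 cm flood kept for the whole test. Response was judged visually relative to controls after 13 to 15 greenhouse days, 0 indicating no effect and 100 complete control.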

galium = assay: Test C preemergence; assay type: in vivo, Galium aparine; settings: for Galium plant response rating: preemergence; for Plant response rating, Galium: Preemergence, scale 0 to 100, 0 no effect, 100 complete control
Excerpt: as §1, §2

velvetleaf = assay: Test A postemergence; assay type: in vivo, Abutilon theophrasti
Method in brief: (§3)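 Scoring: eye-based comparison with untreated controls, 0 for no effect through 100 for complete control, at about day 10. Treatments: directed soil spray preemergence; foliar spray postemergence on 2–10 cm plants at the one- to two-leaf stage. Medium: loam soil with sand.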

large (Lg) crabgrass = assay: Test A postemergence; assay type: in vivo, Digitaria sanguinalis
Method in brief: as §3

[1] = 16 g ai/ha, scale 0 to 100 (0 no effect, 100 complete control)
[2] = 62 g ai/ha, scale 0 (no effect) to 100 (complete control)
[3] = 125 g ai/ha, scale 0 (no effect) to 100 (complete control)
[4] = 125 g ai/ha, 0 to 100 scale where 0 is no effect and 100 is complete control
[5] = 500 g ai/ha, 0 to 100 scale where 0 is no effect and 100 is complete control
[6] = 31 g ai/ha, scale 0 to 100 (0 no effect, 100 complete control)
[7] = Preemergence, 62 g ai/ha, scale 0 to 100, 0 no effect, 100 complete control
[8] = 125 g ai/ha, 0 to 100 scale, 0 no effect, 100 complete control

Compound	Morningglory plant response rating (morningglory; [1])	Morningglory plant response rating (morningglory; [3])	Corn plant response rating (corn; [1])	Corn plant response rating (corn; [3])	Nutsedge, Yellow plant response rating (yellow nutsedge; [1])	Nutsedge, Yellow plant response rating (yellow nutsedge; [3])	Plant response rating, Barnyardgrass (barnyardgrass)	Galium plant response rating (galium; [1])	Galium plant response rating (galium; [3])	Plant response rating, Velvetleaf (velvetleaf; [5])	Plant response rating, Crabgrass, Large (large (Lg) crabgrass; [5])	also measured
FC(F)c1cccc(Oc2ncc(Cl)cn2)c1-n1cc(C(F)(F)F)cn1 [Compound 170]	0	100	0	40	0	55	70	95	100	100	90	Morningglory plant response rating (morningglory; [2]): 40; Corn plant response rating (corn; [2]): 15; Plant response rating, Corn (corn; 31 g ai/ha): 5; Nutsedge, Yellow plant response rating (yellow nutsedge; [2]): 15; Galium plant response rating (galium; [2]): 100; Plant response rating, Galium (galium; 31 g ai/ha): 98; Velvetleaf plant response rating (velvetleaf; [4]): 70; Crabgrass, Large plant response rating (large (Lg) crabgrass; [4]): 70
NC(=S)c1cccc(Oc2ncc(Cl)cn2)c1-n1cc(Cl)cn1 [Compound 292]	25	70	0	45	0	35	20	80	100	100	90	Morningglory plant response rating (morningglory; [6]): 30; Plant response rating, Morningglory (morningglory; [7]): 35; Corn plant response rating (corn; [6]): 5; Plant response rating, Corn (corn; 62 g ai/ha): 10; Nutsedge, Yellow plant response rating (yellow nutsedge; [6]): 0; Plant response rating, Nutsedge, Yellow (yellow nutsedge; [7]): 0; Galium plant response rating (galium; [6]): 98; Plant response rating, Galium (galium; 62 g ai/ha): 100; Plant response rating, Velvetleaf (velvetleaf; [8]): 70; Plant response rating, Crabgrass, Large (large (Lg) crabgrass; [8]): 60

Reference: patent US9695155B2, “Herbicidal substituted pyrimidinyloxy benzene compounds” (E. I. DU PONT DE NEMOURS AND COMPANY, priority 2013, dated 2017)
